Laboratory results from patent US7157487B2, “Vla-4 inhibitors” (Daiichi Pharmaceutical Co., Ltd., priority 2000, dated 2007).

Legend:
[1] = Evaluation of oral bioavailability by mouse bioassay; assay type: in vivo; conditions: 10 mg/kg oral, female Balb/C mice, serum 15 minutes after administration, read-out: Blood level
Description: A test compound was suspended or dissolved in a proper administration medium to give a concentration of 1 mg/ml. To 7 to 9 week old female Balb/C mice, 10 mg/kg of the resulting suspension or solution was orally administered. Fifteen minutes after the administration, blood was collected from the postcava under anesthesia with ether and the serum was separated from it. The concentration of each test compound was determined by estimating the serum level from a calibration curve obtained with VCAM-1/VLA-4 inhibitory activity as an index or measuring the concentration by using LC/MS/MS.

[2] = target: T1, integrins haα4 and β1 (VLA-4) expressed on CHO cells (Homo sapiens, UniProt P05556+P13612); test: In vitro Evaluation Test (1): binding of Eu3+-hVCAM-1 D1D7-IgG to CHO cells expressing integrins α4 and β1; conditions: inhibition of Eu3+-hVCAM-1 D1D7-IgG binding to CHO cells expressing α4β1; Ki calculated from IC50
T1 construct: expressed in transfected cells; host or cells: CHO cells
T1 sequence (P13612 34-1032): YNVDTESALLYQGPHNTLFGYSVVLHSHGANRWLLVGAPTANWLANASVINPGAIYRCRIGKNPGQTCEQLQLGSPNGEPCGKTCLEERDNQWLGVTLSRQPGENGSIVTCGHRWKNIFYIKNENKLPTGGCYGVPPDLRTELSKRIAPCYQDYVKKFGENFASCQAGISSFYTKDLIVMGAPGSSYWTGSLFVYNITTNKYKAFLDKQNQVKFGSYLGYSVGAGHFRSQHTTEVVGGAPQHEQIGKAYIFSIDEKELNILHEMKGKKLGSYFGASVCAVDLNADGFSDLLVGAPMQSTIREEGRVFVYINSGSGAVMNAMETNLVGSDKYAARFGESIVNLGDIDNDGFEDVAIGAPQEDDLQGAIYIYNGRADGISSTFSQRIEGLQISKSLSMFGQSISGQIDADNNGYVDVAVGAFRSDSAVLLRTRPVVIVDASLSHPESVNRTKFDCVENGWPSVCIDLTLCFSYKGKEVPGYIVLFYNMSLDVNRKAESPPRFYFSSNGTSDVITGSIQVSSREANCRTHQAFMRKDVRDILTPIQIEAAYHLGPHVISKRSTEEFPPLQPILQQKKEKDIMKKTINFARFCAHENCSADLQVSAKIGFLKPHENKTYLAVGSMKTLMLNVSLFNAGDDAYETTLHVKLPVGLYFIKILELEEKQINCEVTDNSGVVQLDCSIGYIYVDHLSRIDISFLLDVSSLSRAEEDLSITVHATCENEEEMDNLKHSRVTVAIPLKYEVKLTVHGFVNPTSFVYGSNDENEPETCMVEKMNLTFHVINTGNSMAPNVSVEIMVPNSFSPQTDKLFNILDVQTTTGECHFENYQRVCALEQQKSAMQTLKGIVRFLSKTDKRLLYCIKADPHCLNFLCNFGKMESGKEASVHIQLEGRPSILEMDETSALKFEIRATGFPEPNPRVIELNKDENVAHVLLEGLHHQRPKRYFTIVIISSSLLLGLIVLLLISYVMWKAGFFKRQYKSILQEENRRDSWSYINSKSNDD
T1 sequence (P05556 21-798): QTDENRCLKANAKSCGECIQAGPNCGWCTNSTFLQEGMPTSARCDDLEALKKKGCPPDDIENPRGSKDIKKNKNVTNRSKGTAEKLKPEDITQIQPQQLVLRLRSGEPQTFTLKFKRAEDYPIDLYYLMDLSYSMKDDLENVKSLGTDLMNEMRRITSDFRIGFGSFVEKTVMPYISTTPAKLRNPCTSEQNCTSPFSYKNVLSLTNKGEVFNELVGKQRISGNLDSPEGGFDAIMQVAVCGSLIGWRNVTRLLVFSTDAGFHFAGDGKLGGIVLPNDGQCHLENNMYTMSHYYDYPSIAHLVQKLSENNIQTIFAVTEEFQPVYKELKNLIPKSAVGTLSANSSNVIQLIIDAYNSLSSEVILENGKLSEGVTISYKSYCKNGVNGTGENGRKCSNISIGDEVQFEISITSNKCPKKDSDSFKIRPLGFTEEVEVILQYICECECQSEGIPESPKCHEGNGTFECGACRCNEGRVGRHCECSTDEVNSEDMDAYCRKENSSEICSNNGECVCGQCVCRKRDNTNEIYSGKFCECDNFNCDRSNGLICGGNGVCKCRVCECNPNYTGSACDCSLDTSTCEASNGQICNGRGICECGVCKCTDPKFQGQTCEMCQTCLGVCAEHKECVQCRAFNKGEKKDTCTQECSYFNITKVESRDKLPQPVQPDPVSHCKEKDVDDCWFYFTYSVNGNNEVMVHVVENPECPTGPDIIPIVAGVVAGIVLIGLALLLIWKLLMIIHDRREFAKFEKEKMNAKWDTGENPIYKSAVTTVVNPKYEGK
Procedure, shortened: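 CHO cells transduced with human α4 and β1 were grown for 2 days. They were incubated 1 h at room temperature with Eu3+-hVCAM-1 D1D7-IgG (diluted to 2 nM before addition) and compound, with or without 6% HSA, in HEPES pH 7.5 containing Ca2+, Mg2+ and 4 mM Mn2+. Time-resolved fluorescence gave IC50; Ki used a Scatchard-derived Kd (0.06–20 nM).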

Row | Compound | concentration at 15 min [1] [ng/mL] | Ki [2] [nM]
1 | CC(C)[C@H]1CC[C@@H](CO[C@H]2CC[C@H](C(=O)O)CC2)N1C(=O)Cc1cc(Cl)c(NC(=O)c2cn(C)c3ccccc23)cc1F [Example 173, trans-4-(1-((5-Chloro-2-fluoro-4-((1-methyl-3-indolylcarbonyl)amino)phenyl)acetyl)-(5R)-isopropyl-(2S)-pyrrolidinylmethoxy)cyclohexanecarboxylic acid] | 3470 | 10
2 | COC[C@H]1CC[C@@H](CO[C@H]2CC[C@H](C(=O)O)CC2)N1C(=O)Cc1cc(Cl)c(NC(=O)c2cn(C)c3ccccc23)cc1F [Example 164, trans-4-(1-((5-Chloro-2-fluoro-4-((1-methyl-3-indolylcarbonyl)amino)phenyl)acetyl)-(5R)-methoxymethyl-(2S)-pyrrolidinylmethoxy)cyclohexanecarboxylic acid] | 2300 | 6.4
3 | O=C(Cc1ccc(Nc2nc3ccccc3o2)c(Cl)c1)N1C[C@@H](F)C[C@H]1CO[C@H]1CC[C@H](C(=O)O)CC1 [Example 49, trans-4-(1-(4-(2-benzoxazolyl)amino-3-chlorophenylacetyl)-(4S)-fluoro-(2S)-pyrrolidinylmethoxy)cyclohexanecarboxylic acid] | 508 | 4.4
4 | O=C(Cc1cc(Cl)c(Nc2nc3ccccc3o2)cc1F)N1C[C@@H](F)C[C@H]1CO[C@H]1CC[C@H](C(=O)O)CC1 [Example 55, trans-4-(1-(4-(2-Benzoxazolyl)amino-5-chloro-2-fluorophenylacetyl)-(4S)-fluoro-(2S)-pyrrolidinylmethoxy)cyclohexanecarboxylic acid] | 2030 | 8.5
5 | CO[C@H]1C[C@@H](CO[C@H]2CC[C@H](C(=O)O)CC2)N(C(=O)Cc2cc(Cl)c(NC(=O)c3nn(C)c4ccccc34)cc2F)C1 [Example 121, trans-4-(1-((5-Chloro-2-fluoro-4-(1-methyl-3-indazolylcarbonylamino)phenyl)acetyl)-(4S)-methoxy-(2S)-pyrrolidinylmethoxy)cyclohexanecarboxylic acid] | 4410 | 3.9
6 | O=C(Nc1ccc(CC(=O)N2C[C@@H](F)C[C@H]2CO[C@H]2CC[C@H](C(=O)O)CC2)cc1Br)c1nccc2ccccc12 [Example 79, trans-4-(1-((3-Bromo-4-((1-isoquinolinylcarbonyl)amino)phenyl)acetyl)-(4S)-fluoro-(2S)-pyrrolidinylmethoxy)cyclohexanecarboxylic acid] | 9370 | 4.5
7 | Cn1nc(C(=O)Nc2ccc(CC(=O)N3C[C@@H](F)C[C@H]3CO[C@H]3CC[C@H](C(=O)O)CC3)cc2Cl)c2ccccc21 [Example 89, trans-4-(1-((3-Chloro-4-((1-methyl-3-indazolylcarbonyl)amino)phenyl)acetyl)-(4S)-fluoro-(2S)-pyrrolidinylmethoxy)cyclohexanecarboxylic acid] | 10900 | 3.6
8 | O=C(O)C1CCC(OC[C@@H]2C[C@H](F)CN2C(=O)Cc2ccc3nc(Nc4ccccc4Br)oc3c2)CC1 (single isomer, unassigned) [25 (Isomer A)] | 1090 | 18
9 | Cn1nc(C(=O)Nc2cc(F)c(CC(=O)N3C[C@@H](F)C[C@H]3CO[C@H]3CC[C@H](C(=O)O)CC3)cc2Cl)c2ccccc21 [Example 87, trans-4-(1-((5-Chloro-2-fluoro-4-((1-methyl-3-indazolylcarbonyl)amino)phenyl)acetyl)-(4S)-fluoro-(2S)-pyrrolidinylmethoxy)cyclohexanecarboxylic acid] | 15100 | 9.1
10 | CO[C@@H]1CN(C(=O)Cc2ccc3nc(Nc4ccccc4C)oc3c2)C[C@@H]1Oc1ccc(C(=O)O)cc1 [Example 155, 4-((4R)-Methoxy-1-((2-(2-methylphenylamino)-6-benzoxazolyl)acetyl)-(3S)-pyrrolidinyloxy)benzoic acid] | 571 | 20
11 | COC[C@H]1C[C@@H](CO[C@H]2CC[C@H](C(=O)O)CC2)N(C(=O)Cc2cc(Cl)c(NC(=O)c3nn(C)c4ccccc34)cc2F)C1 [Example 139, trans-4-(1-(5-Chloro-2-fluoro-4-((1-methyl-1H-indazole-3-indazolylcarbonyl)amino)phenylacetyl)-(4S)-methoxymethyl-(2S)-pyrrolidinylmethoxy)cyclohexanecarboxylic acid] | 2430 | 9.1
12 | Cn1cc(-c2nc3ccc(CC(=O)N4C[C@@H](F)C[C@H]4CO[C@H]4CC[C@H](C(=O)O)CC4)cc3o2)c2cc(F)ccc21 [Example 100, trans-4-(1-((2-(5-Fluoro-1-methyl-3-indolyl)-6-benzoxazolyl)acetyl)-(4S)-fluoro-(2S)-pyrrolidinylmethoxy)cyclohexanecarboxylic acid] | 533 | 5.5
13 | Cn1cc(C(=O)Nc2cc(F)c(CC(=O)N3C[C@@H](F)C[C@H]3CO[C@H]3CC[C@H](C(=O)O)CC3)cc2Cl)c2cc(F)ccc21 [Example 74, trans-4-(1-((5-Chloro-2-fluoro-4-(((5-fluoro-1-methyl-3-indolyl)carbonyl)amino)phenyl)acetyl)-(4S)-fluoro-(2S)-pyrrolidinylmethoxy)cyclohexanecarboxylic acid] | 14100 | 7.7
14 | O=C(Nc1cc(F)c(CC(=O)N2C[C@@H](F)C[C@H]2CO[C@H]2CC[C@H](C(=O)O)CC2)cc1Cl)c1n[nH]c2ccccc12 [Example 172, trans-4-(1-((5-Chloro-2-fluoro-4-(3-indazolylcarbonylamino)phenyl)acetyl)-(4S)-fluoro-(2S)-pyrrolidinylmethoxy)cyclohexanecarboxylic acid] | 848 | 6.8
15 | CCCO[C@H]1C[C@@H](CO[C@H]2CC[C@H](C(=O)O)CC2)N(C(=O)Cc2cc(Cl)c(NC(=O)c3cn(C)c4ccccc34)cc2F)C1 [Example 118, trans-4-(1-((5-Chloro-2-fluoro-4-(1-methyl-3-indolylcarbonylamino)phenyl)acetyl)-(4S)-propoxy-(2S)-pyrrolidinylmethoxy)cyclohexanecarboxylic acid] | 5730 | 6.9
16 | O=C(O)C1CCC(OC[C@@H]2C[C@H](F)CN2C(=O)Cc2ccc3nc(Nc4ccccc4Cl)oc3c2F)CC1 (stereo partly drawn) [Example 37, 4-(1-(2-(2-Chlorophenyl)amino-7-fluoro-6-benzoxazolylacetyl)-(4S)-fluoro-(2S)-pyrrolidinylmethoxy)cyclohexanecarboxylic acid] | 3690 | 6.9

Now those with a lower Ki [2], led by results:

Row | concentration at 15 min [1] [ng/mL] | Ki [2] [nM] | Compound
17 | 9400 | 2.5 | CO[C@H]1C[C@@H](CO[C@H]2CC[C@H](C(=O)O)CC2)N(C(=O)Cc2cc(Cl)c(NC(=O)c3cn(C)c4ccccc34)cc2F)C1 [Example 116, trans-4-(1-((5-Chloro-2-fluoro-4-(1-methyl-3-indolylcarbonylamino)phenyl)acetyl)-(4S)-methoxy-(2S)-pyrrolidinylmethoxy)cyclohexanecarboxylic acid]
18 | 2960 | 2 | O=C(Nc1cc(F)c(CC(=O)N2C[C@@H](F)C[C@H]2CO[C@H]2CC[C@H](C(=O)O)CC2)cc1Cl)N1CCc2ccccc21 [Example 91, trans-4-(1-(5-Chloro-2-fluoro-4-(1-(indolinyl)carbonylamino)phenylacetyl)-(4S)-fluoro-(2S)-pyrrolidinylmethoxy)cyclohexanecarboxylic acid]
19 | 5160 | 2.1 | Cn1cc(C(=O)Nc2ccc(CC(=O)N3C[C@@H](F)C[C@H]3COC3CCC(C(=O)O)CC3)cc2Cl)c2ccccc21 (stereo partly drawn) [Example 39, 4-(1-(3-Chloro-4-(1-methyl-3-indolylcarbonylamino)phenylacetyl)-(4S)-fluoro-(2S)-pyrrolidinylmethoxy)cyclohexanecarboxylic acid]
20 | 1100 | 1.5 | O=C(O)C1CCC(OC[C@@H]2C[C@H](F)CN2C(=O)Cc2ccc(NC(=O)N3CCc4ccccc43)c(Cl)c2)CC1 (stereo partly drawn) [Example 36, 4-(1-(3-Chloro-4-(1-indolinylcarbonylamino)phenylacetyl)-(4S)-fluoro-(2S)-pyrrolidinylmethoxy)cyclohexanecarboxylic acid]
21 | 816 | 2.9 | COC[C@H]1CC[C@@H](CO[C@H]2CC[C@@H](C(=O)O)CC2)N1C(=O)Cc1ccc2nc(Nc3cc(F)ccc3C)oc2c1F [Example 165, trans-4-(1-((2-(5-Fluoro-2-methylphenylamino)-7-fluoro-6-benzoxazolyl)acetyl)-(5R)-methoxymethyl-(2S)-pyrrolidinylmethoxy)cyclohexanecarboxylic acid]
22 | 8550 | 3.1 | O=C(Cc1cc(Cl)c(Nc2nc3cc(F)ccc3s2)cc1F)N1C[C@@H](F)C[C@H]1CO[C@H]1CC[C@H](C(=O)O)CC1 [Example 63, trans-4-(1-(5-Chloro-4-(5-fluoro-2-benzothiazolyl)amino-2-fluorophenylacetyl)-(4S)-fluoro-(2S)-pyrrolidinylmethoxy)cyclohexanecarboxylic acid]
23 | 3200 | 3.4 | O=C(Cc1ccc(Nc2nc3cc(F)ccc3s2)c(Cl)c1)N1C[C@@H](F)C[C@H]1CO[C@H]1CC[C@H](C(=O)O)CC1 [Example 62, trans-4-(1-(3-Chloro-4-(5-fluoro-2-benzothiazolyl)aminophenylacetyl)-(4S)-fluoro-(2)-pyrrolidinylmethoxy)cyclohexanecarboxylic acid]
